From ChEMBL document CHEMBL1201862, “PubChem BioAssay data set” (2004) come the findings set out here.

Test systems include M19-MEL; DMS-114; LXFL 529; DLD-1; XF498; KM-20L2; DMS-273; HOP-18; RXF 631.
What all share (test): growth of human tumour cells (NCI), 48 h

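Interpolation was linear, between the two tested concentrations surrounding the appropriate level; five concentrations were tested over 48 hours in 96-well plates. At the GI50, growth is halved.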 Calls of active or inactive are those of the source. Cut-off read from the data, not from the text of the source: active = GI50 up to about 1.1 µM and inactive = higher.

For `O=C(O)/C=C\C(=O)Nc1ccc(S(=O)(=O)c2ccc(NC(=O)/C=C\C(=O)O)cc2)cc1`, the GI50 with M19-MEL was 45 µM (inactive); with DMS-114 it was > 100 µM (inactive); in the test with LXFL 529 it was > 100 µM (inactive); in the test with DLD-1, > 100 µM (inactive); with XF498 it was > 100 µM (inactive); in the test on KM-20L2, > 100 µM (inactive).

For the compound `C=C(OC1C(C)=C2C(C1OC(=O)CCCCCCC)C(C)(OC(C)=O)CC(OC(=O)CCC)C1(O)C2OC(=O)C1(C)O)/C(C)=C/C` (stereo unspecified), the GI50 in the test on M19-MEL is 0.0125 µM (active); in the test on DMS-114, 0.0125 µM (active); in the test on DLD-1, 0.843 µM (active); with XF498 it was 0.348 µM (active); with DMS-273 it was 0.0125 µM (active); with KM-20L2 it was 0.0314 µM (active). Further, the GI50 in the test on HOP-18 is 0.0125 µM (active).

Turning to `COCN1C(=O)C2CC(/C=C/C(N)=O)=CN2C(=O)c2ccccc21` (stereo unspecified), the GI50 in the test on M19-MEL, in the test on DMS-114, in the test with LXFL 529, with DLD-1, in the test with XF498 and in the test on DMS-273 was > 100 µM (inactive) throughout. Besides, the GI50 in the test with KM-20L2 and with HOP-18 was > 100 µM (inactive) throughout.

Take `N=C(N)C1=C(O)NC(=O)N(C2CCCCC2)C1`: the GI50 with M19-MEL, in the test on DMS-114, in the test with LXFL 529, in the test on DLD-1, with DMS-273 and in the test on KM-20L2 was > 100 µM (inactive) each time. Moreover, the GI50 with HOP-18 is > 100 µM (inactive).

With `Cc1ccc(C(=O)O)cc1NC(=O)c1cc(/C=C/c2ccccc2)[nH]c(=S)n1`, the GI50 is > 57 µM (inactive) in the test with DMS-114; > 84.5 µM (inactive) with LXFL 529; > 100 µM (inactive) in the test on RXF 631; > 49.8 µM (inactive) in the test with DLD-1; > 100 µM (inactive) with XF498; > 57.4 µM (inactive) in the test with DMS-273. Also, the GI50 with KM-20L2 and in the test on HOP-18 was > 100 µM (inactive) each time.

With `O.O=C([O-])c1ccccc1Nc1ccccc1C(=O)[O-].[Zn+2]`, the GI50 with M19-MEL was 17.3 µM (inactive); with DMS-114 it was 17.5 µM (inactive); with LXFL 529 it was 22.1 µM (inactive); in the test with DLD-1, 29.2 µM (inactive); in the test on XF498, 25.1 µM (inactive); with DMS-273, 15.7 µM (inactive). The GI50 is 94 µM (inactive) with KM-20L2 and > 52.6 µM (inactive) with HOP-18.

For the compound `C#CCn1c(=O)c2cccnc2n(CC#C)c1=O`, the GI50 in the test with LXFL 529, with DLD-1, with XF498, with DMS-273 and with HOP-18 was > 100 µM (inactive) each time.

Consider `N#Cc1cccc(-n2[nH]c(=O)ccc2=O)c1`, for which the GI50 in the test on M19-MEL, in the test with DMS-114, with LXFL 529, in the test with DLD-1, in the test on DMS-273 and in the test with KM-20L2 was > 100 µM (inactive) each time.

Turning to `COc1ccc(-c2cc(C(=O)Nc3ccc(C)c(C)c3)nc(NC#N)n2)cc1`, the GI50 with M19-MEL, in the test with DMS-114, with LXFL 529, with DLD-1, in the test on XF498 and in the test with DMS-273 was > 100 µM (inactive) throughout. The figures for the GI50 with KM-20L2 and in the test with HOP-18 were > 100 µM (inactive) and 0.562 µM (active), respectively.

Regarding `C/C(=N\[N+](C)(C)C)C(c1ccccc1)C1(c2ccccc2)C(c2ccccc2)=C1c1ccccc1` (stereo unspecified), the GI50 is > 100 µM (inactive) in the test with M19-MEL; > 100 µM (inactive) in the test with DLD-1; 22.6 µM (inactive) in the test on XF498; > 100 µM (inactive) in the test on DMS-273; > 100 µM (inactive) in the test on KM-20L2.

Regarding `CC1=NN(C(=O)c2ccc(Cl)cc2)C(=O)/C1=C/c1cccc(O)c1`, the GI50 with M19-MEL, with DMS-114, with LXFL 529, in the test with DLD-1 and in the test on KM-20L2 was > 100 µM (inactive) throughout.

Turning to `N#CC(NNC(=O)c1ccccc1O)c1cccc(O)c1` (stereo unspecified), the GI50 was 3.61 µM (inactive) in the test on DMS-114; 4.31 µM (inactive) with LXFL 529; 4.54 µM (inactive) with DLD-1; 2.32 µM (inactive) in the test with DMS-273; 33.7 µM (inactive) with KM-20L2; 35.3 µM (inactive) in the test with HOP-18.

Regarding `COc1cc2nncc(Sc3cnnc4ccccc34)c2cc1OC`, the GI50 was 30.7 µM (inactive) in the test on M19-MEL; 9.95 µM (inactive) with DMS-114; 9.79 µM (inactive) in the test on LXFL 529; 23 µM (inactive) with RXF 631; 19.6 µM (inactive) in the test with DLD-1; 29.7 µM (inactive) in the test with DMS-273. The GI50 with KM-20L2 was 25.6 µM (inactive); in the test with HOP-18, 16.5 µM (inactive).

On to `CCN(CC)CCOC(c1ccccc1)c1ccccc1.CCOC(=O)Nc1ccc(S(=O)(=O)NCCCl)cc1.CCOC(=O)Nc1ccc(S(=O)(=O)NCCCl)cc1.Nc1ccc(C(=O)O)c(O)c1`, for which the GI50 in the test with M19-MEL, in the test with DMS-114, in the test with LXFL 529, in the test on RXF 631, in the test on DLD-1 and with KM-20L2 was > 100 µM (inactive) each time. The GI50 in the test on HOP-18 was > 100 µM (inactive).

Take `CCN(CC)CC1c2ccccc2C(CNc2ccccc2)N1C` (stereo unspecified): the GI50 in the test with M19-MEL is > 100 µM (inactive); in the test on DMS-114, > 100 µM (inactive); in the test on LXFL 529 it was > 100 µM (inactive); with RXF 631, > 100 µM (inactive); with DLD-1 it was 70.8 µM (inactive); in the test with XF498 it was > 100 µM (inactive). Also, the GI50 with DMS-273 and in the test with KM-20L2 was > 100 µM (inactive) throughout.

In the case of `Cn1cc(NC(=O)c2cc(NC(=O)CCCCCCC(=O)Nc3cc(C(=O)Nc4cc(C(=O)NCCC(=N)N)n(C)c4)n(C)c3)cn2C)cc1C(=O)NCCC(=N)N`, the GI50 in the test on M19-MEL was 2.82 µM (inactive); in the test with DMS-114, 2.47 µM (inactive); in the test on LXFL 529, 5.92 µM (inactive); with DLD-1, 18.9 µM (inactive); in the test with XF498, 34.9 µM (inactive); with DMS-273 it was 3.82 µM (inactive). For the same compound, the GI50 in the test with KM-20L2 is > 100 µM (inactive); in the test on HOP-18, 15.5 µM (inactive).

Consider `O=C1C=CC2(C=C1)CCNC1=C2C(=O)c2ccccc2C1=O`, for which the GI50 was 32.5 µM (inactive) in the test on M19-MEL; > 100 µM (inactive) in the test with DMS-114; > 100 µM (inactive) in the test with LXFL 529; > 100 µM (inactive) with RXF 631; > 100 µM (inactive) in the test with DLD-1; > 100 µM (inactive) in the test on XF498. Moreover, the GI50 with DMS-273 and with KM-20L2 was > 100 µM (inactive) each time.

Take `O=C(c1ccccc1)C(c1ccccc1)C1(O)C(=O)Nc2c(Cl)cc(Cl)cc21` (stereo unspecified): the GI50 with DMS-114 was 16.5 µM (inactive); in the test with LXFL 529, 11.4 µM (inactive); with RXF 631, 18.9 µM (inactive); in the test with DLD-1, 17.7 µM (inactive); with XF498 it was > 100 µM (inactive); in the test with DMS-273, 27.4 µM (inactive). Moreover, the GI50 with KM-20L2 is 36.8 µM (inactive); in the test on HOP-18 it was 14.9 µM (inactive).
